Test results reported in US20210267205A1, “METHOD OF CONTROLLING WEEDS” (SUMITOMO CHEMICAL COMPANY, LIMITED, priority 2018, published 2021).

What was measured:
Type in all cases: in vivo
Echinochloa crus-galli [1] = assay: Herbicidal effect, soil spray the day after seeding, pot test (Example 1153); settings: 100 L per 10000 m^2, 30 PSI, 10 days in greenhouse, scale of 0 to 100
Description: (§1) Echinochloa crus-galli was seeded on a plastic pot filled with a soil. On the next day, an aqueous diluted liquid of trifludimoxazin (prepared by diluting an emuslfiable concentrate of trifludimoxazin with water) was uniformly sprayed onto the pot through the nozzles given in Table 1 at the amount of the aqueous diluted liquid of 100 L per 10000 m^2 so that the application rate of trifludimoxazin might be 20 or 10 g per 10000 m^2. The spray pressure was 30 PSI and the spray height (distance between the nozzle outlet and the soil surface of the pot) was 60 cm. The air temperature was 17 degrees Celsius, the wind speed was 2.5 m/s, and the relative humidity was 65% at the timing of application. The sprayed pots were placed in a greenhouse for 10 days to grow Echinochloa crus-galli and then herbicidal effects were evaluated on scale of 0 to 100.

[2] = system: Waterhemp having a Gly210 deletion mutation in PPO2; assay: Herbicidal effect, soil spray the day after seeding, pot test (Example 1155); settings: 10 g per 10000 m^2; 100 L per 10000 m^2; 30 PSI; 10 days in greenhouse; scale of 0 to 100
Description: as §1, with “Waterhemp having a Gly210 deletion mutation in PPO2, was seeded” for “Echinochloa crus-galli was seeded”, “in Table 3 at the” for “in Table 1 at the”, “might be 10 g” for “might be 20 or 10 g”, “to grow waterhemp and then” for “to grow Echinochloa crus-galli and then”, “evaluated on a scale of” for “evaluated on scale of”

Echinochloa crus-galli [3] = assay: Herbicidal effect, soil spray the day after seeding, pot test (Example 1154); settings: 150 L per 10000 m^2, 30 PSI, 10 days in greenhouse, scale of 0 to 100
Description: as §1, with “in Table 2 at the” for “in Table 1 at the”, “liquid of 150 L per” for “liquid of 100 L per”, “might be 30 or 15” for “might be 20 or 10”, “30 or 15 g per” for “20 or 10 g per”, “evaluated on a scale of” for “evaluated on scale of”

[4] = system: Waterhemp having a Gly210 deletion mutation in PPO2; assay: Herbicidal effect, soil spray the day after seeding, pot test (Example 1156); settings: 15 g per 10000 m^2; 150 L per 10000 m^2; 30 PSI; 10 days in greenhouse; scale of 0 to 100
Description: as §1, with “Waterhemp having a Gly210 deletion mutation in PPO2 was seeded” for “Echinochloa crus-galli was seeded”, “in Table 4 at the” for “in Table 1 at the”, “liquid of 150 L per” for “liquid of 100 L per”, “might be 15 g per” for “might be 20 or 10 g per”, “to grow waterhemp and then” for “to grow Echinochloa crus-galli and then”, “evaluated on a scale of” for “evaluated on scale of”

[5] = system: Amaranthus palmeri, waterhemp and ragweeds having mutations in PPO2; assay: Effect on weeds, foliar treatment 21 days after sowing (Example 3); settings: 10, 20, 40, 80, or 160 g/ha, 200 L/ha, drift-reducing nozzle TTI11004, examined 14 days after treatment
Text: Amaranthus palmeri having an Arg128Gly mutation in PPO2, Amaranthus palmeri having an Arg128Met mutation in PPO2, Amaranthus palmeri having a Gly210 deletion mutation in PPO2, Amaranthus palmeri having a Gly399A1a mutation in PPO2, waterhemp having a Gly210 deletion mutation in PP02, ragweeds having Arg128Leu in PP02, and a Roundup Ready 2 Xtend soybean are sown in a plastic pot. Then, the weeds and soybean are cultivated in a greenhouse and a compound X is applied to perform foliar treatment by using a drift-reducing nozzle (TTI11004 manufactured by Teejet Company) 21 days after sowing. The amount of the compound X to be applied is 10, 20, 40, 80, or 160 g/ha and the amount of spray dilution is 200 L/ha. Then, the weeds and soybean are further cultivated in a greenhouse to examine the effects on the weeds and phytotoxic effects on the soybean 14 days after treatment.

[6] = system: Amaranthus palmeri, waterhemp and ragweeds having mutations in PPO2; assay: Effect on weeds, soil surface application on day of weed sowing, soybean sown after 7 days (Example 1); settings: 10, 20, 40, 80, or 160 g/ha, 200 L/ha, drift-reducing nozzle TTI11004, examined after 14 days
Text: Amaranthus palmeri having an Arg128Gly mutation in PPO2, Amaranthus palmeri having an Arg128Met mutation in PPO2, Amaranthus palmeri having a Gly210 deletion mutation in PPO2, Amaranthus palmeri having a Gly399Ala mutation in PPO2, waterhemp having a Gly210 deletion mutation in PPO2, and ragweeds having Arg128Leu in PPO2 are sown in a plastic pot. On the same day, a compound X is applied to the surface of soil by using a drift-reducing nozzle (TTI11004 manufactured by Teejet Company). The amount of the compound X to be applied is 10, 20, 40, 80, or 160 g/ha and the amount of spray dilution is 200 L/ha. Then, these weeds are cultivated in a greenhouse and Roundup Ready 2 Xtend soybean seeds are sown after 7 days, to examine the effects on the weeds and phytotoxic effects on the soybean after 14 days.

[7] = system: Amaranthus palmeri, waterhemp and ragweeds having mutations in PPO2; assay: Effect on weeds, soil surface application on day of sowing weeds and soybean (Example 2); settings: 10, 20, 40, 80, or 160 g/ha, 200 L/ha, drift-reducing nozzle TTI11004, examined after 21 days
Text: Amaranthus palmeri having an Arg128Gly mutation in PPO2, Amaranthus palmeri having an Arg128Met mutation in PPO2, Amaranthus palmeri having a Gly210 deletion mutation in PPO2, Amaranthus palmeri having a Gly399Ala mutation in PPO2, waterhemp having a Gly210 deletion mutation in PP02, ragweeds having Arg128Leu in PP02, and a Roundup Ready 2 Xtend soybean are sown in a plastic pot. On the same day, a compound X is applied to the surface of soil by using a drift-reducing nozzle (TTI11004 manufactured by Teejet Company). The amount of the compound X to be applied is 10, 20, 40, 80, or 160 g/ha and the amount of spray dilution is 200 L/ha. Then, the weeds and soybean are cultivated in a greenhouse to examine the effects on the weeds and phytotoxic effects on the soybean after 21 days.

| SMILES | Herbicidal effect on Echinochloa crus-galli, Air induction nozzle (TTI11002) (Echinochloa crus-galli [1]; 10 g per 10000 m^2) | Herbicidal effect on Echinochloa crus-galli, Standard nozzle (Teejet11002) (Echinochloa crus-galli [1]; 10 g per 10000 m^2) | Herbicidal effect on Echinochloa crus-galli, Air induction nozzle (TTI11002) (Echinochloa crus-galli [1]; 20 g per 10000 m^2) | Herbicidal effect on Echinochloa crus-galli, Standard nozzle (Teejet11002) (Echinochloa crus-galli [1]; 20 g per 10000 m^2) | Herbicidal effect on Waterhemp having a Gly210 deletion mutation in PPO2, Air induction nozzle (TTI11002) [2] | Herbicidal effect on Waterhemp having a Gly210 deletion mutation in PPO2, Pre-orifice nozzle (DG11002) [2] | Herbicidal effect on Waterhemp having a Gly210 deletion mutation in PPO2, Standard nozzle (Teejet11002) [2] | Herbicidal effect on Echinochloa crus-galli, Air induction nozzle (TTI11004) (Echinochloa crus-galli [3]; 15 g per 10000 m^2) | Herbicidal effect on Echinochloa crus-galli, Standard nozzle (Teejet11004) (Echinochloa crus-galli [3]; 15 g per 10000 m^2) | Herbicidal effect on Echinochloa crus-galli, Air induction nozzle (TTI11004) (Echinochloa crus-galli [3]; 30 g per 10000 m^2) | Herbicidal effect on Echinochloa crus-galli, Standard nozzle (Teejet11004) (Echinochloa crus-galli [3]; 30 g per 10000 m^2) | Herbicidal effect on Waterhemp having a Gly210 deletion mutation in PPO2, Air induction nozzle (TTI11004) [4] | Herbicidal effect on Waterhemp having a Gly210 deletion mutation in PPO2, Standard nozzle (Teejet11004) [4] | effects on the weeds [5] | effects on the weeds [6] | effects on the weeds [7] |
| --- | --- | --- | --- | --- | --- | --- | --- | --- | --- | --- | --- | --- | --- | --- | --- | --- |
| C#CCN1C(=O)C(F)(F)Oc2cc(F)c(-n3c(=O)n(C)c(=S)n(C)c3=O)cc21 [Trifludimoxazin, trifludimoxazin] | 60 | 20 | 80 | 30 | 90 | 90 | 50 | 70 | 30 | 90 | 40 | 95 | 60 |  |  |  |
| CCOC(=O)COc1ncccc1Oc1cc(-n2c(=O)cc(C(F)(F)F)n(C)c2=O)c(F)cc1Cl [compound X, Ethyl [3-[2-chloro-4-fluoro-5-(1-methyl-6-trifluoromethyl-2,4-dioxo-1,2,3,4-tetrahydropyrimidine-3-yl)phenoxy]-2-pyridyloxy]acetate] |  |  |  |  |  |  |  |  |  |  |  |  |  | valuable effect | valuable effect | valuable effect |
